Test results published in publication PMC12339982 (Nature Communications, 2025).
Changes are numbered by the printed parent chain.

Experiments:
TauT L306A mutant = target: T1, TauT L306A mutant (Homo sapiens, UniProt P31641, L306A); assay: MST binding, TauT L306A; conditions: mean ± s.e.m., n=3
T1 sequence (P31641 1-620 L306A): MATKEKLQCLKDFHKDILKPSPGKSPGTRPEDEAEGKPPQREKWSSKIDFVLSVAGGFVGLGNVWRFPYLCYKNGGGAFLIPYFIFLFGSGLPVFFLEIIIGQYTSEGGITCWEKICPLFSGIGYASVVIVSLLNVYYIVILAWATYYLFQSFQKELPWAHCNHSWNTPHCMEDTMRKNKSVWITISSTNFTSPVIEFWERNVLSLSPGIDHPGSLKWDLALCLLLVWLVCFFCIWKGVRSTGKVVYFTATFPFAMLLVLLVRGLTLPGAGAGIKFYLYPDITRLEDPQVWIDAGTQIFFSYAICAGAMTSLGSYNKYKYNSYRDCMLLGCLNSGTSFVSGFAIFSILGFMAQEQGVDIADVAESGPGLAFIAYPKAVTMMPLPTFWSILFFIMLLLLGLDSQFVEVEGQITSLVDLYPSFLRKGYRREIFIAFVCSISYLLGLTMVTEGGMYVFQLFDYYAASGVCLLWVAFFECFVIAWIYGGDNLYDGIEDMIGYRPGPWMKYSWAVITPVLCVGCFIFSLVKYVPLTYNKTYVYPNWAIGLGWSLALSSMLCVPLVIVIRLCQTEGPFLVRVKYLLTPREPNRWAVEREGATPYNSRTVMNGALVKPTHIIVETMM

TauT^WT and variants [1] = target: T2, TauT^WT and variants (Homo sapiens, UniProt P31641, L134C); assay: GAA uptake assay; format: cell-based; conditions: mutation Leu134Cys
T2 sequence (P31641 1-620 L134C): T1 sequence (P31641 1-620 L306A) with L134C, A306L

TauT^WT and variants [2] = assay: GAA uptake assay; format: cell-based, human; conditions: amino acid substitutions in Gly57, Phe58, Leu306
TauT S402A mutant = target: T3, TauT S402A mutant (Homo sapiens, UniProt P31641, S402A); assay: MST binding, TauT S402A; conditions: mean ± s.e.m., n=3
T3 sequence (P31641 1-620 S402A): T1 sequence (P31641 1-620 L306A) with A306L, S402A

TauT^EM = target: T4, TauT^EM (Homo sapiens, UniProt P31641, D486N/D490E/E493R/G491D/K319H/L488F/N487R/R499P/S322V/Y320N/Y489S/Y498F); assay: MST binding, TauT^EM; conditions: compared with TauT^WT
T4 sequence (P31641 1-620 K319H/Y320N/S322V/D486N/N487R/L488F/Y489S/D490E/G491D/E493R/Y498F/R499P): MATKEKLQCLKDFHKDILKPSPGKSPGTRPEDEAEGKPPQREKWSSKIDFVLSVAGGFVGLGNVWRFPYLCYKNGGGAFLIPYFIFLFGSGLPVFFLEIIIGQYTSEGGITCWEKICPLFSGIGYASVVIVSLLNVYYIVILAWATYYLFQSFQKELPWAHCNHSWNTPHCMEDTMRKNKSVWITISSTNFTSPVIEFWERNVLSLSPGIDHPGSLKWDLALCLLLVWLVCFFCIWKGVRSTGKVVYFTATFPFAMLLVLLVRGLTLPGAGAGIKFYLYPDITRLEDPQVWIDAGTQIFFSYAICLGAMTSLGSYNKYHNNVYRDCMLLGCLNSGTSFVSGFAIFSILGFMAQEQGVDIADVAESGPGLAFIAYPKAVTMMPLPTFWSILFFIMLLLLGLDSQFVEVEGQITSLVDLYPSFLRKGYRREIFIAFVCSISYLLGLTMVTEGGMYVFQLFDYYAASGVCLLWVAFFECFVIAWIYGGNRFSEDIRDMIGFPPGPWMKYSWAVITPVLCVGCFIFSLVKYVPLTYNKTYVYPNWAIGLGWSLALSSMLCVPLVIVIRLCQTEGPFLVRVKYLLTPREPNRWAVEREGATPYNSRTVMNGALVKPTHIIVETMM

Kd (MST) (TauT L306A mutant) | transport activity of GAA (TauT^WT and variants [1]) | Kd (MST) (TauT S402A mutant) | binding affinity (Kd, MST) of TauT^EM (TauT^EM) | Compound | transport activity for GAA (TauT^WT and variants [2])
drastic loss of GAA binding affinity | greater transport activity |  |  | [H]/N=C(/N)NCC(=O)O [GAA, guanidinoacetate] | decrease in transport activity
 |  | undetectable binding | analogous to those of TauT^WT | NCCS(=O)(=O)O [Taurine, taurine] | 
